In the first experiment the target is T1, Cholecystokinin receptor type A (Rattus norvegicus, UniProt P30551).
T1 sequence (P30551 whole entry): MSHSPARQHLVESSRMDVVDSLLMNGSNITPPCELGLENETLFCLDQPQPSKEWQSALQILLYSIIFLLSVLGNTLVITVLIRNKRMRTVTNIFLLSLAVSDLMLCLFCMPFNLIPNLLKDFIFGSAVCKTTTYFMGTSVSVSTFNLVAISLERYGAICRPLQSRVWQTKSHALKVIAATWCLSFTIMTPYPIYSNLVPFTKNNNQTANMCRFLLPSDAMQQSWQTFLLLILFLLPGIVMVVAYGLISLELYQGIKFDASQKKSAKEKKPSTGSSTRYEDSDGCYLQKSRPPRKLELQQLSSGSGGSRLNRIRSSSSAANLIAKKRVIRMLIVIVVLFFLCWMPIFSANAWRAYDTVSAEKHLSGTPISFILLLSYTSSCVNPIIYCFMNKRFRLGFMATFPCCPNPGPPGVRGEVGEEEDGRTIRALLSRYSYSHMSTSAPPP
In words: Evaluated in vitro for Cholecystokinin type A receptor affinity by measuring its ability to displace tritiated CCK-8S bound on rat pancreas Cholecystokinin type A receptor.
On to `CC(C)CCN1C(=O)C(NC(=O)Nc2ccccc2)C(=O)N(CC23CC4CC(CC(C4)C2)C3)c2ccccc21` (stereo unspecified), for which the Ki is 288 nM.

Molecule `CC(C)CCN1C(=O)C(NC(=O)Nc2ccccc2)C(=O)N(Cc2ccccc2)c2ccccc21` (stereo unspecified) showed a Ki of 66.1 nM.

As to `CC(C)CCN1C(=O)C(NC(=O)Oc2cccc(N(C)C)c2)C(=O)N(CCC(C)C)c2ccccc21`, the inhibitory constant (Ki) was 794 nM.

Molecule `O=C(Nc1cccc(Cl)c1)NC1C(=O)N(CC23CC4CC(CC(C4)C2)C3)c2ccccc2N(C2CCCCC2)C1=O` (stereo unspecified) had an inhibition constant Ki of 240 nM.

As to `CC(C)CCN1C(=O)C(NC(=O)Nc2cccc(N(C)C)c2)C(=O)N(CCC(C)C)c2ccccc21`, affinity was put at a Ki of 83.2 nM.

As for `O=C(Nc1ccccc1)N[C@@H]1C(=O)N(CC23CC4CC(CC(C4)C2)C3)c2ccccc2N(c2ccccc2)C1=O` (single isomer, unassigned; (+)), the affinity corresponds to a Ki of 1120 nM.

The molecule `O=C(Nc1ccccc1)NC1C(=O)N(CC23CC4CC(CC(C4)C2)C3)c2ccccc2N(CC23CC4CC(CC(C4)C2)C3)C1=O` (stereo unspecified) showed a Ki of 2000 nM.

The molecule `CC(CC1CCCC1)N1C(=O)C(NC(=O)Nc2ccccc2)C(=O)N(C(C)CC2CCCC2)c2ccccc21` (stereo unspecified) had a Ki of 229 nM.

In turn, `CC(C)CCN1C(=O)C(NC(=O)Nc2ccccc2)C(=O)N(CCC(C)C)c2ccccc21` gave a Ki of 61.7 nM.

The molecule `CC(C)CCN1C(=O)C(NC(=O)Oc2ccccc2)C(=O)N(CC23CC4CC(CC(C4)C2)C3)c2ccccc21` (stereo unspecified) had a Ki of 1410 nM.

The molecule `CC(C)CCN1C(=O)C(NC(=O)Oc2cccc(N(C)C)c2)C(=O)N(CC23CC4CC(CC(C4)C2)C3)c2ccccc21` (stereo unspecified) gave a Ki of 1580 nM.

Consider `O=C(NC1C(=O)N(CC23CC4CC(CC(C4)C2)C3)c2ccccc2N(C2CCCCC2)C1=O)Oc1ccccc1` (stereo unspecified), for which the inhibitory constant (Ki) is 1100 nM.

In the case of `O=C(Nc1ccccc1)NC1C(=O)N(CC23CC4CC(CC(C4)C2)C3)c2ccccc2N(C2CCCCC2)C1=O` (stereo unspecified), the affinity corresponds to a Ki of 562 nM.

Turning to `CC(C)CCN1C(=O)C(NC(=O)Nc2cccc(N(C)C)c2)C(=O)N(CC23CC4CC(CC(C4)C2)C3)c2ccccc21` (stereo unspecified), the inhibition constant Ki was 955 nM.

The species named for the next experiment is Rattus norvegicus. Put plainly: Ratio of CCK-B receptor affinity and CCK-A receptor affinity.
Regarding `CC(C)CCN1C(=O)C(NC(=O)Nc2ccccc2)C(=O)N(CC23CC4CC(CC(C4)C2)C3)c2ccccc21` (stereo unspecified), the Ratio turned out to be 209.

For `CC(C)CCN1C(=O)C(NC(=O)Nc2ccccc2)C(=O)N(Cc2ccccc2)c2ccccc21` (stereo unspecified), the Ratio stood at 17.

For `CC(C)CCN1C(=O)C(NC(=O)Oc2cccc(N(C)C)c2)C(=O)N(CCC(C)C)c2ccccc21`, the Ratio worked out at 28.

Consider `O=C(Nc1cccc(Cl)c1)NC1C(=O)N(CC23CC4CC(CC(C4)C2)C3)c2ccccc2N(C2CCCCC2)C1=O` (stereo unspecified), for which the Ratio is 22.

As to `CC(C)CCN1C(=O)C(NC(=O)Nc2cccc(N(C)C)c2)C(=O)N(CCC(C)C)c2ccccc21`, the Ratio turned out to be 32.

Consider `O=C(Nc1ccccc1)NC1C(=O)N(CC23CC4CC(CC(C4)C2)C3)c2ccccc2N(CC23CC4CC(CC(C4)C2)C3)C1=O` (stereo unspecified), for which the Ratio stood at 58.

As to `CC(C)CCN1C(=O)C(NC(=O)Nc2ccccc2)C(=O)N(CCC(C)C)c2ccccc21`, the Ratio came out at 26.

Turning to `CC(C)CCN1C(=O)C(NC(=O)Oc2ccccc2)C(=O)N(CC23CC4CC(CC(C4)C2)C3)c2ccccc21` (stereo unspecified), the Ratio worked out at 42.

In the case of `CC(C)CCN1C(=O)C(NC(=O)Oc2cccc(N(C)C)c2)C(=O)N(CC23CC4CC(CC(C4)C2)C3)c2ccccc21` (stereo unspecified), the Ratio turned out to be 209.

Turning to `O=C(NC1C(=O)N(CC23CC4CC(CC(C4)C2)C3)c2ccccc2N(C2CCCCC2)C1=O)Oc1ccccc1` (stereo unspecified), the Ratio came out at 26.

For `O=C(Nc1ccccc1)NC1C(=O)N(CC23CC4CC(CC(C4)C2)C3)c2ccccc2N(C2CCCCC2)C1=O` (stereo unspecified), the Ratio came out at 234.

Regarding `CC(C)CCN1C(=O)C(NC(=O)Nc2cccc(N(C)C)c2)C(=O)N(CC23CC4CC(CC(C4)C2)C3)c2ccccc21` (stereo unspecified), the Ratio was 170.

(Values after ChEMBL document CHEMBL1129775, “Synthesis and evaluation of novel 1,5-Benzodiazepines as potent and selective CCK-B ligands. Effect of the substitution of the N-5 phenyl with alkyl groups” (Bioorg Med Chem Lett, 1996).)
